Assay results as given in patent EP4663640A1 (Shanghai Institute of Materia Medica, Chinese Academy of …, priority 2023, dated 2024).

molecular target: T1, hTRPC5 (Homo sapiens, UniProt Q9UL62); experiment: TRPC5 inhibitory activity assay (FLIPR calcium fluorescence, Englerin A stimulation); format: cell-based; conditions: not given
T1 construct: expressed in transfected cells; host or cells: HEK-293
T1 sequence (Q9UL62 1-973): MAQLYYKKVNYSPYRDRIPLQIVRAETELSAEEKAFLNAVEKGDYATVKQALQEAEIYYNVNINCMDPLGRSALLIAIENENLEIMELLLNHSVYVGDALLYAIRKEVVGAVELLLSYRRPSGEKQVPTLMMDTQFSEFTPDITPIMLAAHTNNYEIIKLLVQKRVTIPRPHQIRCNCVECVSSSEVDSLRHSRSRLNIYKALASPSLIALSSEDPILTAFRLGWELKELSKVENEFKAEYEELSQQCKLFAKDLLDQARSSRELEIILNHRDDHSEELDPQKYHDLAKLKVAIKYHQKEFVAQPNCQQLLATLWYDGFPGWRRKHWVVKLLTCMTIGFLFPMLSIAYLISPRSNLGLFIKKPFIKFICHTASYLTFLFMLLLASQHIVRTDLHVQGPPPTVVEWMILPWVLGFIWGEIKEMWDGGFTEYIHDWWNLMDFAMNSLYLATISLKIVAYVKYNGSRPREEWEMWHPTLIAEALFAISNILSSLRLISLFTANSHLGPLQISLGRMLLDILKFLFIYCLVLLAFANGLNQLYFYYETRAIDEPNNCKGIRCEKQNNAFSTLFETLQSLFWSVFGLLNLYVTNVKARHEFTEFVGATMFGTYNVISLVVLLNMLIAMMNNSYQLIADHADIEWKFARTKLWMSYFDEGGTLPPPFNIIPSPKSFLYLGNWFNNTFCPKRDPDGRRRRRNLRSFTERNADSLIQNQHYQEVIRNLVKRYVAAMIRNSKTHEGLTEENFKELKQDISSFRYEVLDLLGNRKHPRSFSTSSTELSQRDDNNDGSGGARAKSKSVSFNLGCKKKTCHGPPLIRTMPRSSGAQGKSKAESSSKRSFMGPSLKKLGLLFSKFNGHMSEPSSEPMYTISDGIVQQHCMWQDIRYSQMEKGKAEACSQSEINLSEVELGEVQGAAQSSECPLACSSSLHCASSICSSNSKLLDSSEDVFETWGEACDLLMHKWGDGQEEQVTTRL
Method: HEK-293 cells expressing hTRPC3, hTRPC4 or hTRPC5 were seeded into black-bottomed 96-well plates coated with poly-lysine (PDL), with 2×10^4 cells per well. After 8 h of culture, the original culture medium was discarded, and 60 µL of Fluo-4/AM dye with a final concentration of 4 µM was added. The plates were incubated at 37 °C for 60 min, and then rinsed five times with calcium flow detection buffer. […] Then, the agonist Englerin A (EA) (MedChemExpress, Shanghai, China, final concentration of 0.3nM) was added, and the fluorescence signal was collected for 600 seconds. The fluorescence signal of the trajectory diagram is represented by F/F0, wherein F is the fluorescence signal at different time points, and F0 is the basic fluorescence signal, that is, the average value of the fluorescence signal at the first 10 time points. […] The area under the curve of the change in fluorescence intensity after adding EA was calculated. IC50 value was calculated using log[Inhibitor] vs. response - Variable slope, taking into account the area under the curve and the log value of the concentration of the compound.

Row | SMILES | IC50
1 | Cn1c(=O)n(CCCO)c(=O)c2c1nc(C1CCC3(CC1)OCCO3)n2Cc1ccc(Cl)cc1 [Example E13, 7-(4-chlorobenzyl)-1-(3-hydroxypropyl)-3-methyl-8-(1,4-dioxacyclo[4.5]dec-8-yl)-3,7-dihydro-1H-purine-2,6-dione] | 82.1 nM

same assay, conditions: Table 1, TRPC5 channels, HEK-293 cells expressing hTRPC5; read-out: FLIPR IC50

Row | SMILES | IC50
2 | Cn1c(=O)n(CCCO)c(=O)c2c1cc(C1=CCCC1)n2Cc1ccc(Cl)cc1 [Example E1, 5-(4-chlorobenzyl)-6-(cyclopent-1-en-1-yl)-3-(3-hydroxypropyl)-1-methyl-1,5-dihydro-2H-pyrrolo[3,2-d]pyrimidine-2,4(3H)-dione] | 69.4 nM
3 | Cn1c(=O)n(CCCO)c(=O)c2c1cc(C1CCCC1)n2Cc1ccc(Cl)cc1 [Example E2, 5-(4-chlorobenzyl)-6-cyclopentyl-3-(3-hydroxypropyl)-1-methyl-1,5-dihydro-2H-pyrrolo[3,2-d]pyrimidine-2,4(3H)-dione] | 112 nM
4 | CC(C)OC1CC=C(c2nc3c(c(=O)n(CCCO)c(=O)n3C)n2Cc2ccc(Cl)cc2)CC1 (centres unmarked) [Example E8, 7-(4-chlorobenzyl)-1-(3-hydroxypropyl)-8-(4-isopropoxycyclohex-1-en-1-yl)-3-methyl-3,7-dihydro-1H-purine-2,6-dione] | 19.3 nM
5 | Cn1c(=O)n(CCCO)c(=O)c2c1nc(C1=CCC(C)(C)CC1)n2Cc1ccc(Cl)cc1 [Example E11, 7-(4-chlorobenzyl)-8-(4,4-dimethylcyclohex-1-en-1-yl)-1-(3-hydroxypropyl)-3-methyl-3,7-dihydro-1H-purine-2,6-dione] | 8.79 nM
6 | Cn1c(=O)n(CCCO)c(=O)c2c1nc(C1CCC(C(F)(F)F)CC1)n2Cc1ccc(Cl)cc1 (centres unmarked) [Example E12, 7-(4-chlorobenzyl)-1-(3-hydroxypropyl)-3-methyl-8-(4-(trifluoromethyl)cyclohexyl)-3,7-dihydro-1H-purine-2,6-dione] | 13.5 nM
7 | CC(C)n1c(=O)n(CCCO)c(=O)c2c1nc(C1CC1C1CCCC1)n2Cc1ccc(Cl)cc1 (centres unmarked) [Example E15, 7-(4-chlorobenzyl)-8-(2-cyclopentylcyclopropyl)-1-(3-hydroxypropyl)-3-isopropyl-3,7-dihydro-1H-purine-2,6-dione] | 76 nM
8 | Cn1c(=O)n(CCCO)c(=O)c2c1nc(/C=N/OC(C)(C)C)n2Cc1ccc(Cl)cc1 [Example E18, (E)-7-(4-chlorobenzyl)-1-(3-hydroxypropyl)-3-methyl-2,6-dioxo-2,3,6,7-tetrahydro-1H-purine-8-carbaldehyde-O-(tert-butyl)oxime] | 43.8 nM
9 | Cn1c(=O)n(CCCO)c(=O)c2c1nc(C1=Cc3ccccc3C1)n2Cc1ccc(Cl)cc1 [Example E20, 7-(4-chlorobenzyl)-1-(3-hydroxypropyl)-8-(1H-inden-2-yl)-3-methyl-3,7-dihydro-1H-purine-2,6-dione] | 83.8 nM
10 | COC1(c2nc3c(c(=O)n(CCCO)c(=O)n3C)n2Cc2ccc(Cl)cc2)CCC(C(F)(F)F)CC1 (centres unmarked) [Example E22, 7-(4-chlorobenzyl)-1-(3-hydroxypropyl)-8-(1-methoxy-4-(trifluoromethyl)cyclohexyl)-3-methyl-3,7-dihydro-1H-purine-2,6-dione] | 198 nM
11 | Cn1c(=O)n(CCCO)c(=O)c2c1nc(C1(O)CCC(C(F)(F)F)CC1)n2Cc1ccc(Cl)cc1 (centres unmarked) [Example E23, 7-(4-chlorobenzyl)-8-(1-hydroxy-4-(trifluoromethyl)cyclohexyl)-1-(3-hydroxypropyl)-3-methyl-3,7-dihydro-1H-purine-2,6-dione] | 322 nM
12 | C/C(=N\OC(C)(C)C)c1nc2c(c(=O)n(CCCO)c(=O)n2C)n1Cc1ccc(Cl)cc1 [Example E27, (E)-8-(1-(tert-butoxyimino)ethyl)-7-(4-chlorobenzyl)-1-(3-hydroxypropyl)-3-methyl-3,7-dihydro-1H-purine-2,6-dione] | 64.7 nM
13 | CCC1CCC(F)(c2nc3c(c(=O)n(CCCO)c(=O)n3C)n2Cc2ccc(Cl)cc2)CC1 (centres unmarked) [Example E30, 7-(4-chlorobenzyl)-8-(4-ethyl-1-fluorocyclohexyl)-1-(3-hydroxypropyl)-3-methyl-3,7-dihydro-1H-purine-2,6-dione] | 281 nM
14 | Cn1c(=O)n(CCCO)c(=O)c2c1nc(C1=CC(F)C(C)(C)CC1)n2Cc1ccc(Cl)cc1 (centres unmarked) [Example E34] | 49.1 nM
15 | CC1CCC(F)(c2nc3c(c(=O)n(CCCO)c(=O)n3C)n2Cc2ccc(Cl)cc2)CC1 (centres unmarked) [Example E39, 7-(4-chlorobenzyl)-8-(1-fluoro-4-methylcyclohexyl)-1-(3-hydroxypropyl)-3-methyl-3,7-dihydro-1H-purine-2,6-dione] | 4.63 nM
16 | Cn1c(=O)n(CCCO)c(=O)c2c1nc(C1(F)CCC(C#N)CC1)n2Cc1ccc(Cl)cc1 (centres unmarked) [Example E40, 4-(7-(4-chlorobenzyl)-1-(3-hydroxypropyl)-3-methyl-2,6-dioxo-2,3,6,7-tetrahydro-1H-purin-8-yl)-4-fluorocyclohexane-1-carbonitrile] | 3.7 nM
17 | Cn1c(=O)n(CCCO)c(=O)c2c1nc(C1=CCC(C(F)(F)F)CC1)n2Cc1ccc(Cl)cc1 (centres unmarked) [Example E41, 7-(4-chlorobenzyl)-1-(3-hydroxypropyl)-3-methyl-8-(4-(trifluoromethyl)cyclohex-1-en-1-yl)-3,7-dihydro-1H-purine-2,6-dione] | 55.5 nM
18 | CCn1c(=O)n(CCCO)c(=O)c2c1nc(C1(F)CCC(C(F)(F)F)CC1)n2Cc1ccc(Cl)c(F)c1 (centres unmarked) [Example E51, 7-(4-chloro-3-fluorobenzyl)-3-ethyl-8-(1-fluoro-4-(trifluoromethyl)cyclohexyl)-1-(3-hydroxypropyl)-3,7-dihydro-1H-purine-2,6-dione] | 3.19 nM
19 | CC(C)n1c(=O)n(CCCO)c(=O)c2c1nc(C1(F)CCC(C(F)(F)F)CC1)n2Cc1ccc(Cl)cc1 (centres unmarked) [Example E53, 7-(4-chlorobenzyl)-8-(1-fluoro-4-(trifluoromethyl)cyclohexyl)-1-(3-hydroxypropyl)-3-isopropyl-3,7-dihydro-1H-purine-2,6-dione] | 41.4 nM
20 | CCn1c(=O)n(CCCO)c(=O)c2c1nc(C1=CCC(C(F)(F)F)CC1)n2Cc1ccc(Cl)c(F)c1 (centres unmarked) [Example E57, 7-(4-chloro-3-fluorobenzyl)-3-ethyl-1-(3-hydroxypropyl)-8-(4-(trifluoromethyl)cyclohex-1-en-1-yl)-3,7-dihydro-1H-purine-2,6-dione] | 52.9 nM
21 | Cn1c(=O)n(CCCO)c(=O)c2c1nc(C1(F)CCC(C(F)(F)F)CC1)n2Cc1ccc(F)cc1F (centres unmarked) [Example E65, 7-(2,4-difluorobenzyl)-8-(1-fluoro-4-(trifluoromethyl)cyclohexyl)-1-(3-hydroxypropyl)-3-methyl-3,7-dihydro-1H-purine-2,6-dione] | 2.85 nM
22 | Cn1c(=O)n(CCCO)c(=O)c2c1nc(C1(F)CCC(C(F)(F)F)CC1)n2Cc1ccc(F)cc1Cl (centres unmarked) [Example E67, 7-(2-chloro-4-fluorobenzyl)-8-(1-fluoro-4-(trifluoromethyl)cyclohexyl)-1-(3-hydroxypropyl)-3-methyl-3,7-dihydro-1H-purine-2,6-dione] | 18.9 nM
23 | Cn1c(=O)n(CCCO)c(=O)c2c1nc(C1(F)CCC(C(F)(F)F)CC1)n2Cc1ccc(F)c(Cl)c1 (centres unmarked) [Example E69, 7-(3-chloro-4-fluorobenzyl)-8-(1-fluoro-4-(trifluoromethyl)cyclohexyl)-1-(3-hydroxypropyl)-3-methyl-3,7-dihydro-1H-purine-2,6-dione] | 0.37 nM
